Legend:
SW620 cells (KRAS G12V) = assay: Cell-based pERK HTRF assay in SW620 cell (Biological Example 4); conditions: pERK HTRF
In short: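 SW620 cells were treated for 4 h with compound in a 9-point half-log series from 1 μM top (0.25% DMSO), then lysed. Phospho-ERK was detected by HTRF with d2 and Eu cryptate antibodies after 4–24 h at room temperature, read at 615 nm emission.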

[1] = molecular target: T1, Avi-KRAS G12D (1-169) GppNHp/RAF1 RBD-3xFLAG (52-151) (Homo sapiens, UniProt P01116, G12D); assay: Raf1-KRAS G12D-GppNHP disruption HTRF assay (Biological Example 1); format: binding
T1 construct: Avi-KRAS G12D (1-169)
In short: (§1)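 Compounds were tested for disruption of KRAS–RAF1 RBD binding by HTRF in 50 mM Tris pH 7.5, 100 mM NaCl, 5 mM MgCl2, 0.1% BSA, 0.01% Tween, 10% DMSO. Protein mix was incubated 1 h at room temperature with shaking, then detection reagents added for another 1 h. Activity expressed as percent of DMSO control.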

[2] = molecular target: T2, Avi-KRAS WT (1-169) GppNHp/RAF1 RBD-3xFLAG (52-151) (Homo sapiens, UniProt P01116); assay: Raf1-KRAS WT-GppNHP disruption HTRF assay (Biological Example 1); format: binding
T2 construct: Avi-KRAS WT (1-169)
In short: as §1

[3] = molecular target: T3, Avi-KRAS G12V (1-169) GppNHp/RAF1 RBD-3xFLAG (52-151) (Homo sapiens, UniProt P01116, G12V); assay: Raf1-KRAS G12V-GppNHP disruption HTRF assay (Biological Example 1); format: binding
T3 construct: Avi-KRAS G12V (1-169)
In short: as §1

GP2d cells (KRAS G12D) = assay: Cell-based pERK HTRF assay in GP2d cell (Biological Example 2); conditions: GP2d (KRAS G12D) cells, pERK HTRF
In short: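 Phospho-ERK in lysed cells was detected by HTRF using Eu cryptate and d2 antibodies, read between 4 and 24 h at room temperature. Prior to lysis, KRAS G12D GP2d cells, seeded the day before in DMEM with 10% FBS, were exposed to compounds for 60 min. Compounds were tested as 9-point half-log curves from 1 μM or 100 nM top, with 0.25% DMSO.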

[4] = molecular target: T4, Avi-KRAS G12R (1-169) GppNHp/RAF1 RBD-3xFLAG (52-151) (Homo sapiens, UniProt P01116, G12R); assay: Raf1-KRAS G12R-GppNHP disruption HTRF assay (Biological Example 1); format: binding
T4 construct: Avi-KRAS G12R (1-169)
In short: as §1

[5] = Homo sapiens, SW-620, SW620 (KRAS G12V) cells, class symbols
[6] = KRAS G12D, GppNHp-loaded, class symbols
[7] = KRAS WT, GppNHp-loaded, class symbols
[8] = KRAS G12V, GppNHp-loaded, class symbols
[9] = KRAS G12R, GppNHp-loaded, class symbols
[10] = Homo sapiens, SW-620, SW620 (KRAS G12V) cells
[11] = KRAS G12D, GppNHp-loaded, Table 11
[12] = KRAS WT, GppNHp-loaded, Table 11
[13] = KRAS G12V, GppNHp-loaded, Table 11
[14] = KRAS G12R, GppNHp-loaded, Table 11

T4 sequence (P01116 1-169 isoform P01116-2 G12R): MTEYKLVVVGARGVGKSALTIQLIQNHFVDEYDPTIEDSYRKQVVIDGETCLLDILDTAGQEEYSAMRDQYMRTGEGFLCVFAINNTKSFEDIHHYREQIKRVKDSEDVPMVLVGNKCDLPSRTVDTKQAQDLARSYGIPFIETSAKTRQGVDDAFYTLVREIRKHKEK
T3 sequence (P01116 1-169 isoform P01116-2 G12V): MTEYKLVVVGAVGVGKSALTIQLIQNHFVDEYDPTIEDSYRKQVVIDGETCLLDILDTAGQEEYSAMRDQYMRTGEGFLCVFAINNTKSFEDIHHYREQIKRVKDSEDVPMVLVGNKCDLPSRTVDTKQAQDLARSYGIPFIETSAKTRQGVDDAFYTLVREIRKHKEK
T2 sequence (P01116 1-169 isoform P01116-2): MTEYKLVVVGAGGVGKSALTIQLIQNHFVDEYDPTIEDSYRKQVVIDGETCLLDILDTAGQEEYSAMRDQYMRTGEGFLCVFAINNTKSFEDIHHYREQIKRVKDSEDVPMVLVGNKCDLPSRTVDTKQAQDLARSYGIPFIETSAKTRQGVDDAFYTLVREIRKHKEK
T1 sequence (P01116 1-169 isoform P01116-2 G12D): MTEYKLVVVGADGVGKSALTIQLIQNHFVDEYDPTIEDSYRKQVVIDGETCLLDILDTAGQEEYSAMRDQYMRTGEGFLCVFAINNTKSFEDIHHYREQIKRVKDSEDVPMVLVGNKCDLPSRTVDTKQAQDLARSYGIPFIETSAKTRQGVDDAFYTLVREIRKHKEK

Row | SMILES | IC50 (SW620 cells (KRAS G12V); [5]) [nM] | IC50 [1, 6] [nM] | IC50 [2, 7] [nM] | IC50 [3, 8] [nM] | IC50 (GP2d cells (KRAS G12D); GP2d, class symbols) [nM] | IC50 [4, 9] [nM] | IC50 (SW620 cells (KRAS G12V); [10]) [nM] | IC50 (GP2d cells (KRAS G12D); GP2d) [nM] | IC50 ([1]; KRAS G12D-GppNHp/RAF1 RBD HTRF) [nM] | IC50 ([2]; KRAS WT-GppNHp/RAF1 RBD HTRF) [nM] | IC50 ([3]; KRAS G12V-GppNHp/RAF1 RBD HTRF) [nM] | IC50 ([4]; KRAS G12R-GppNHp/RAF1 RBD HTRF) [nM] | further results
1 | COC1CN(C(=O)N2CC[C@H](N(c3nc(OC[C@@]45CCCN4C[C@H](F)C5)nc4c(F)c(-c5ccc(F)c6sc(N)c(C#N)c56)c(C(F)(F)F)cc34)C3CC3)C2)C1 (atropisomer, axis not shown) [Compound 801] | < 100 | < 100 | 100 to 1000 | 100 to 1000 | < 100 | 100 to 1000 | – | – | – | – | – | – | –
2 | CCOC1CN(C(=O)N2CC[C@H](N(CC)c3nc(OC[C@@]45CCCN4C[C@H](F)C5)nc4c(F)c(-c5ccc(F)c6sc(N)c(C#N)c56)c(C(F)(F)F)cc34)C2)C1 (atropisomer, axis not shown) [Compound 758] | < 100 | < 100 | < 100 | < 100 | < 100 | < 100 | – | – | – | – | – | – | –
3 | CCN(c1nc(OC[C@@]23CCCN2C[C@H](F)C3)nc2c(F)c(-c3ccc(F)c4sc(N)c(C#N)c34)c(C(F)(F)F)cc12)[C@H]1C[C@@H](COC)N(C(C)=O)C1 (atropisomer, axis not shown) [Compound 632] | < 100 | 100 to 1000 | 100 to 1000 | 100 to 1000 | < 100 | 100 to 1000 | – | – | – | – | – | – | –
4 | CCN(c1nc(OC[C@@]23CCCN2C[C@H](F)C3)nc2c(F)c(-c3ccc(F)c4sc(N)c(C#N)c34)c(C(F)(F)F)cc12)[C@H]1CCN(C(=O)N2CC(OC)C2)[C@@H]1C (atropisomer, axis not shown) [Compound 761] | < 100 | < 100 | < 100 | < 100 | < 100 | < 100 | – | – | – | – | – | – | –
5 | CC1c2cc(C(=O)N(C)C)nn2CCN1c1nc(OCC23CCCN2CC(F)C3)nc2c(F)c(-c3ccc(F)c4sc(N)c(C#N)c34)c(C(F)(F)F)cc12 (stereo not drawn) [Compound 701] | – | 1000 to 10000 | > 10000 | 1000 to 10000 | – | 1000 to 10000 | – | – | – | – | – | – | IC50 (SW620 cells (KRAS G12V); SW620 (KRAS G12V) cells, class symbols): < 100 nM; IC50 (GP2d cells (KRAS G12D); class symbols): < 100 nM
6 | Cn1ncc2c1CN(c1nc(OC[C@@]34CCCN3C[C@H](F)C4)nc3c(F)c(-c4ccc(F)c5sc(N)c(C#N)c45)c(C(F)(F)F)cc13)CC2 [Compound 352] | – | – | – | – | – | – | < 100 | 100 to 1000 | 1000 to 10000 | > 10000 | > 10000 | > 10000 | –
7 | N#Cc1c(N)sc2c(F)ccc(-c3c(C(F)(F)F)cc4c(N5C6COCC5CC(O)C6)nc(OC[C@@]56CCCN5C[C@H](F)C6)nc4c3F)c12 (stereo partly drawn) [Compound 374] | – | – | – | – | – | – | < 100 | < 100 | 100 to 1000 | 100 to 1000 | 1000 to 10000 | 1000 to 10000 | –
8 | CCN(c1nc(OC[C@@]23CCCN2C[C@H](F)C3)nc2c(F)c(-c3ccc(F)c4sc(N)c(C#N)c34)c(C(F)(F)F)cc12)[C@H]1CCN(C(=O)CC#N)C1 (atropisomer, axis not shown) [Compound 546] | – | – | – | – | – | – | < 100 | < 100 | < 100 | < 100 | < 100 | < 100 | –
9 | [2H]C1([2H])OC(=O)N2C[C@@H](N(CC)c3nc(OC[C@@]45CCCN4C[C@H](F)C5)nc4c(F)c(-c5ccc(F)c6sc(N)c(C#N)c56)c(C(F)(F)F)cc34)C[C@H]21 (atropisomer, axis not shown) [Compound 760] | < 100 | < 100 | < 100 | < 100 | < 100 | < 100 | – | – | – | – | – | – | –
10 | N#Cc1c(N)sc2c(F)ccc(-c3c(C(F)(F)F)cc4c(N5C[C@H]6C[C@@H](O)[C@@H]5C6)nc(OC[C@@]56CCCN5C[C@H](F)C6)nc4c3F)c12 [Compound 362] | – | – | – | – | – | – | 100 to 1000 | < 100 | 100 to 1000 | 100 to 1000 | 1000 to 10000 | 100 to 1000 | –

More lines, main results first:

Row | IC50 (SW620 cells (KRAS G12V); [5]) [nM] | IC50 [1, 6] [nM] | IC50 [2, 7] [nM] | IC50 [3, 8] [nM] | IC50 (GP2d cells (KRAS G12D); GP2d, class symbols) [nM] | IC50 [4, 9] [nM] | IC50 (SW620 cells (KRAS G12V); [10]) [nM] | IC50 (GP2d cells (KRAS G12D); GP2d) [nM] | IC50 ([1]; KRAS G12D-GppNHp/RAF1 RBD HTRF) [nM] | IC50 ([2]; KRAS WT-GppNHp/RAF1 RBD HTRF) [nM] | IC50 ([3]; KRAS G12V-GppNHp/RAF1 RBD HTRF) [nM] | IC50 ([4]; KRAS G12R-GppNHp/RAF1 RBD HTRF) [nM] | SMILES | further results
11 | – | – | – | – | – | – | < 100 | < 100 | – | – | – | – | C[C@@H]1C[C@H](O)CCN1c1nc(OC[C@@]23CCCN2C[C@H](F)C3)nc2c(F)c(-c3ccc(F)c4sc(N)c(C#N)c34)c(C(F)(F)F)cc12 [Compound 265] | IC50 [1, 11]: 100 to 1000 nM; IC50 [2, 12]: 100 to 1000 nM; IC50 [3, 13]: 100 to 1000 nM; IC50 [4, 14]: 100 to 1000 nM
12 | – | – | – | – | – | – | – | – | 100 to 1000 | 100 to 1000 | 1000 to 10000 | 1000 to 10000 | CCC(=O)N1CC(N(C)c2nc(OCC34CCCN3CC(F)C4)nc3c(F)c(-c4ccc(F)c5sc(N)c(C#N)c45)c(C(F)(F)F)cc23)CC1C (stereo not drawn) [Compound 444] | IC50 (SW620 cells (KRAS G12V); SW620 (KRAS G12V) cells): < 100 nM; IC50 (GP2d cells (KRAS G12D)): < 100 nM
13 | – | – | – | – | – | – | 100 to 1000 | < 100 | 100 to 1000 | 100 to 1000 | 100 to 1000 | 100 to 1000 | CC(=O)N1C[C@@H](C)[C@H](N(C)c2nc(OC[C@@]34CCCN3C[C@H](F)C4)nc3c(F)c(-c4ccc(F)c5sc(N)c(C#N)c45)c(C(F)(F)F)cc23)C1 [Compound 303] | –
14 | < 100 | < 100 | < 100 | < 100 | < 100 | < 100 | – | – | – | – | – | – | CCN(c1nc(OC[C@@]23CCCN2C[C@H](F)C3)nc2c(F)c(-c3ccc(F)c4sc(N)c(C#N)c34)c(C(F)(F)F)cc12)[C@H]1CCN(C(=O)[C@H](C)CO)C1 (atropisomer, axis not shown) [Compound 746] | –
15 | – | – | – | – | – | – | < 100 | < 100 | < 100 | < 100 | 100 to 1000 | < 100 | CCN(c1nc(OC[C@@]23CCCN2C[C@H](F)C3)nc2c(F)c(-c3ccc(F)c4sc(N)c(C#N)c34)c(C(F)(F)F)cc12)[C@H]1CCN(C(=O)C2CC(F)(F)C2)C1 (atropisomer, axis not shown) [Compound 550] | –
16 | < 100 | 1000 to 10000 | 100 to 1000 | 1000 to 10000 | < 100 | 1000 to 10000 | – | – | – | – | – | – | CC(=O)N1CC[C@H]2[C@@H]1CN2c1nc(OC[C@@]23CCCN2C[C@H](F)C3)nc2c(F)c(-c3ccc(F)c4sc(N)c(C#N)c34)c(C(F)(F)F)cc12 (atropisomer, axis not shown) [Compound 641] | –
17 | – | – | – | – | – | – | < 100 | < 100 | – | – | – | – | CC1(O)COCCN(c2nc(OC[C@@]34CCCN3C[C@H](F)C4)nc3c(F)c(-c4ccc(F)c5sc(N)c(C#N)c45)c(C(F)(F)F)cc23)C1 (stereo partly drawn) [Compound 244] | IC50 [1, 11]: 100 to 1000 nM; IC50 [2, 12]: 100 to 1000 nM; IC50 [3, 13]: 100 to 1000 nM; IC50 [4, 14]: 100 to 1000 nM
